Patent US10172355B2, “Safened herbicidal compositions including 4-amino-3-chloro-5-fluoro-6-(4-chloro-2-fluoro-3-methoxyphenyl)pyridine-2-carboxylic acid or a derivative thereof for use in rice” (Dow AgroSciences LLC, priority 2012, dated 2019)
Like-named read-outs stand apart in the source and are kept apart here.

System: ECHCG=Echinochloa crus-galli
Experiment: Postemergence foliar-applied herbicides and safeners, visual injury of weed
Assay type: in vivo
Details: for pest or weed control at 140 g/ha: Echinochloa crus-galli, foliar, 480 h, read-out: Visual Injury (%) - 20 DAA ECHCG Obs, foliar, Compound A form 140 g ae/ha alone; for Mean Visual Injury (%) - 20-22 DAA ECHCG: post-emergence foliar
Text: Seeds or nutlets of the desired test plant species were planted in a soil matrix prepared by mixing a loam or sandy loam soil (e.g., 28.6 percent silt, 18.8 percent clay, and 52.6 percent sand, with a pH of about 5.8 and an organic matter content of about 1.8 percent) and calcareous grit in an 80 to 20 ratio. The soil matrix was contained in plastic pots with a surface area of 84.6 square centimeters (cm^2). When required to ensure good germination and healthy plants, a fungicide treatment and/or other chemical or physical treatment was applied. The plants were grown for 8-22 days in a greenhouse with an approximate 14 hr photoperiod which was maintained at about 29° C. during the day and 26° C. during the night. Nutrients (Peters Excel 15-5-15 5-Ca 2-Mg and iron chelate) were applied in the irrigation solution as needed and water was added on a regular basis. Supplemental lighting was provided with overhead metal halide 1000-Watt lamps as necessary. The plants were employed for testing when they reached the second or third true leaf stage.
Treatments consisted of the acid or esters of 4-amino-3-chloro-5-fluoro-6-(4-chloro-2-fluoro-3-methoxy-phenyl)pyridine-2-carboxylic acid (compound A) and various safener components alone and in combination. Forms of compound A were applied on an acid equivalent basis. Safener components were applied on an active ingredient or acid equivalent basis depending on the compound.
Treatment requirements were calculated based upon the rates being tested, the concentration of active ingredient or acid equivalent in the formulation, and a 12 mL application volume at a rate of 187 L/ha.
For treatments comprised of formulated compounds, measured amounts of compounds were placed individually in 25 mL glass vials and diluted in a volume of 1.25% (v/v) Agri-dex crop oil concentrated to obtain 12× stock solutions. […] Application solutions were prepared by adding an appropriate amount of each stock solution (e.g., 1 mL) and diluted to the appropriate final concentrations with the addition of 10 mL of an aqueous mixture of 1.25% (v/v) Agri-dex crop oil concentrate so that the final spray solutions contained 1.25% (v/v) Agri-dex crop oil concentrate.
For treatments comprised of technical compounds, weighed amounts were placed individually in 25 mL glass vials and dissolved in a volume of 97:3 v/v acetone/DMSO to obtain 12× stock solutions. […] Application solutions were prepared by adding an appropriate amount of each stock solution (e.g., 1 mL) and diluted to the appropriate final concentrations with the addition of 10 mL of an aqueous mixture of 1.5% (v/v) Agri-dex crop oil concentrate so that the final spray solutions contained 1.25% (v/v) Agri-dex crop oil concentrate. When technical materials were used, the concentrated stock solutions were added to the spray solutions so that the final acetone and DMSO concentrations of the application solutions were […], respectively.
For treatments comprised of formulated and technical compounds, weighed amounts of the technical materials were placed individually in 25 mL glass vials and dissolved in a volume of 97:3 v/v acetone/DMSO to obtain 12× stock solutions, and measured amounts of the formulated compounds were placed individually in 25 mL glass vials and diluted in a volume of 1.5% (v/v) Agri-dex crop oil concentrate or water to obtain 12× stock solutions. […] Application solutions were prepared by adding an appropriate amount of each stock solution (e.g., 1 mL) and diluted to the appropriate final concentrations with the addition of an appropriate amount of an aqueous mixture of 1.5% (v/v) Agri-dex crop oil concentrate so that the final spray solutions contained 1.25% (v/v) Agri-dex crop oil concentrate. When required, additional water and/or 97:3 v/v acetone/DMSO was added to individual application solutions so that the final acetone and DMSO concentrations of the application solutions being compared were 8.1% and 0.25%, respectively. […]

Row | Structure (SMILES) | pest or weed control at 140 g/ha (trial of Tables 3,4,6,10,12,14) [%] | pest or weed control at 140 g/ha (trial of Tables 5,9,11,13) [%] | Mean Visual Injury (%) - 20-22 DAA ECHCG (2 g ae/ha) [%] | Mean Visual Injury (%) - 20-22 DAA ECHCG (4 g ae/ha) [%] | Mean Visual Injury (%) - 20-22 DAA ECHCG (8 g ae/ha) [%] | Mean Visual Injury (%) - 20-22 DAA ECHCG (16 g ae/ha) [%] | Mean Visual Injury (%) - 20-22 DAA ECHCG (32 g ae/ha) [%]
1 | COc1c(Cl)ccc(-c2nc(C(=O)O)c(Cl)c(N)c2F)c1F [Acid, 4-amino-3-chloro-6-(4-chloro-2-fluoro-3-methoxyphenyl)-5-fluoropyridine-2-carboxylic acid] | 98 | 96 | 57 | 81 | 91 | 95 | 96
2 | COc1c(Cl)ccc(-c2nc(C(=O)OCc3ccccc3)c(Cl)c(N)c2F)c1F [Benzyl] | 98 | 99 | 63 | 91 | 94 | 95 | 96
